The results in this text go back to US9169209B2, “Compounds and compositions for the inhibition of NAMPT” (FORMA TM, LLC, priority 2011, dated 2015).

For test [1], the target named is NAMPT (Homo sapiens (Human), UniProt P43490). Kind of test: Biochemical Inhibition Assay (NAMPT enzymatic reaction, NMN quantified by mass spectrometry). The following applies: recombinant His-tagged NAMPT, 33 nM; 1 μM NAM; read-out: Biochem IC50. How it is done:
Recombinant His-tagged NAMPT was produced in E. coli cells, purified over a Ni column, and further purified over a size-exclusion column by XTAL Biostructures.
The NAMPT enzymatic reactions were carried out in Buffer A (50 mM Hepes pH 7.5, 50 mM NaCl, 5 mM MgCl2, and 1 mM THP) in 96-well V-bottom plates. The compound titrations were performed in a separate dilution plate by serially diluting the compounds in DMSO to make a 100× stock. […] The compound and enzyme mix was incubated for 15 minutes at room temperature, then 10 μL of 10× substrate and co-factors in Buffer A were added to the test well to make a final concentration of 1 μM NAM, 100 μM 5-Phospho-D-ribose 1-diphosphate (PRPP), and 2.5 mM Adenosine 5′-triphosphate (ATP). The reaction was allowed to proceed for 30 minutes at room temperature, then was quenched with the addition of 11 μL of a solution of formic acid and L-Cystathionine to make a final concentration of 1% formic acid and 10 μM L-Cystathionine. Background and signal strength was determined by addition (or non-addition) of a serial dilution of NMN to a pre-quenched enzyme and cofactor mix.
A mass spectrometry-based assay was used to measure the NAMPT reaction product (NMN) and the internal control (L-Cystathionine). NMN and L-Cystathionine were detected using the services of Biocius Lifesciences with the RapidFire system. In short, the NMN and L-Cystathionine are bound to a graphitic carbon cartridge in 0.1% formic acid, eluted in 30% acetonitrile buffer, and injected into a Sciex 4000 mass spectrometer. The components of the sample were ionized with electrospray ionization and the positive ions were detected. […] The fragments are quantified and the analyzed by the following method.
First the NMN signal is normalized to the L-Cystathionine signal by dividing the NMN signal by the L-Cystathionine signal for each well. The signal from the background wells are averaged and subtracted from the test plates.
Wherein x denotes the average signal of the compound treated wells and y denotes the average signal of the DMSO treated wells.
IC50s are Determined Using Excel and this Formula.
Wherein X denotes the compound concentration 1, Y denotes the compound concentration 2, XX denotes the % inhibition at compound concentration 1 (X), and YY denotes the % inhibition at compound concentration 2 (Y).

For test [2], the system named is A2780 cells. The test is described as follows: In-Vitro Cell Proliferation Assay (SRB, 72 hours). It counts as cell-based. The following applies: Homo sapiens, A2780, 72 h, A2780 cells, 72 hours, sulforhodamine B; read-out: A2780 IC50. How it is done: After overnight incubation at 37° C. and 5% CO2, the compound titrations were performed in a separate dilution plate by serially diluting the compounds in DMSO to make a 1000× stock. The compounds were then further diluted to 10× final concentration in culture media, whereupon 20 μL of each dilution was added to the plated cells with controls (e.g. DMSO and blank) to make a final volume of 200 μL. The final DMSO concentration in each well was 0.1%. The plates were then incubated for 72 hours at 37° C. in a 5% CO2 incubator. The number of viable cells was then assessed using sulforhodamine B (SRB) assay. Cells were fixed at 4° C. for 1 hour with the addition of 50 μL 30% trichloroacetic acid (TCA) to make a final concentration of 6% TCA. The plates were washed four times with H2O and allowed to dry for at least 1 hour, whereupon 100 μL of a 4% SRB in 1% acetic acid solution was added to each well and incubated at room temperature for at least 30 minutes. The plates were then washed three times with 1% acetic acid, dried, and treated with 100 μL of 10 mM Tris-Base solution. The plates were then read in a microplate reader at an absorbance of 570 nm. Background was generated on a separate plate with media only.
First, the signals from the background plate are averaged and then the background was subtracted from the test plates.
wherein x denotes the average signal of the compound-treated cells and y denotes the average signal of the DMSO-treated cells.
wherein X denotes the compound concentration 1, Y denotes the compound concentration 2, XX denotes the % inhibition at compound concentration 1 (X), and YY denotes the % inhibition at compound concentration 2 (Y).

NAMPT, sequence (P43490 whole entry): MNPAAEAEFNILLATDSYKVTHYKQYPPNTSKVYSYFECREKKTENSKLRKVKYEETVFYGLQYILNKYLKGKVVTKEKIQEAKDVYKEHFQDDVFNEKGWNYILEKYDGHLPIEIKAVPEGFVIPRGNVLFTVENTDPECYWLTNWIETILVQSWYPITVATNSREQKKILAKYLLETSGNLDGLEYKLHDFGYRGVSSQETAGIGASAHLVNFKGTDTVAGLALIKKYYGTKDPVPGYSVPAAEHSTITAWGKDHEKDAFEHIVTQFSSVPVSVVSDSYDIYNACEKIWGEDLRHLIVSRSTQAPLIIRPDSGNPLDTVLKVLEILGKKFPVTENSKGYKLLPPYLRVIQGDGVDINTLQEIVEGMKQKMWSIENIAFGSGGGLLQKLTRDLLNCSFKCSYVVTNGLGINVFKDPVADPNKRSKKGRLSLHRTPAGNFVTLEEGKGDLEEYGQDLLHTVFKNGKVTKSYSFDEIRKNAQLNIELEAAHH

The term IC50 denotes the point on the concentration scale where inhibition reaches its midpoint. With `Cn1cc(S(=O)(=O)c2ccc(NC(=O)/C=C/c3cccnc3)cc2)cn1` [(2E)-N-[4-(1-methyl-1H-pyrazole-4-sulfonyl)phenyl]-3-(pyridin-3-yl)prop-2-enamide], the figures for the concentration for half-maximal inhibition (IC50) in test [1] and in test [2] were 7.7 nM and 100 to 1000 nM, respectively.
For `COc1ccc(S(=O)(=O)c2ccc(NC(=O)/C=C/c3cccnc3)cc2)cc1F` [(2E)-N-{4-[(3-fluoro-4-methoxybenzene)sulfonyl]phenyl}-3-(pyridin-3-yl)prop-2-enamide], the values for the IC50 in test [1] and in test [2] were 11.5 nM and 103 nM, respectively.
The matching figures for `COc1cc(F)cc(S(=O)(=O)c2ccc(NC(=O)/C=C/c3cccnc3)cc2)c1` [(2E)-N-{4-[(3-fluoro-5-methoxybenzene)sulfonyl]phenyl}-3-(pyridin-3-yl)prop-2-enamide]: 3.2 nM and 68.1 nM.
The matching figures for `O=C(/C=C/c1cccnc1)Nc1ccc(S(=O)(=O)c2ccc3ncccc3c2)cc1` [(2E)-3-(pyridin-3-yl)-N-[4-(quinoline-6-sulfonyl)phenyl]prop-2-enamide]: 5.4 nM and 76.2 nM.
Taken in the same sequence, the figures for `O=C(/C=C/c1cccnc1)Nc1ccc(S(=O)(=O)c2cccc3c2OCO3)cc1` [(2E)-N-[4-(2H-1,3-benzodioxole-4-sulfonyl)phenyl]-3-(pyridin-3-yl)prop-2-enamide] were 16.1 nM and 75.1 nM.
Take `O=C(/C=C/c1cccnc1)Nc1ccc(S(=O)(=O)c2cccnc2)cc1` [(2E)-3-(pyridin-3-yl)-N-[4-(pyridine-3-sulfonyl)phenyl]prop-2-enamide]: the IC50 in test [1] was 18.3 nM; in test [2], 100 to 1000 nM.
Taken in the same sequence, the figures for `O=C(/C=C/c1cccnc1)Nc1ccc(S(=O)(=O)Nc2ccccc2OC(F)(F)F)cc1` [(2E)-3-(pyridin-3-yl)-N-(4-{[2-(trifluoromethoxy)phenyl]sulfamoyl}phenyl)prop-2-enamide] were 375 nM and 1270 nM.
The matching figures for `COc1ccc(F)cc1S(=O)(=O)c1ccc(NC(=O)/C=C/c2cccnc2)cc1` [(2E)-N-{4-[(5-fluoro-2-methoxybenzene)sulfonyl]phenyl}-3-(pyridin-3-yl)prop-2-enamide]: 14.5 nM and 20.5 nM.
The matching figures for `COc1cc(C(F)(F)F)ccc1S(=O)(=O)c1ccc(NC(=O)/C=C/c2cccnc2)cc1` [(2E)-N-(4-{[2-methoxy-4-(trifluoromethyl)benzene]sulfonyl}phenyl)-3-(pyridin-3-yl)prop-2-enamide]: 59.6 nM and 118 nM.
For `CCS(=O)(=O)Nc1cccc(S(=O)(=O)c2ccc(NC(=O)/C=C/c3cccnc3)cc2)c1` [(2E)-N-{4-[(3-ethanesulfonamidobenzene)sulfonyl]phenyl}-3-(pyridin-3-yl)prop-2-enamide], the IC50 in test [1] is 8.1 nM; in test [2], 100 to 1000 nM.
The matching figures for `CC(C)CNC(=O)c1cccc(S(=O)(=O)c2ccc(NC(=O)/C=C/c3cccnc3)cc2)c1` [N-(2-methylpropyl)-3-({4-[(2E)-3-(pyridin-3-yl)prop-2-enamido]benzene}sulfonyl)benzamide]: 21.3 nM and 100 to 1000 nM.
Taken in the same sequence, the figures for `CCNC(=O)c1cccc(S(=O)(=O)c2ccc(NC(=O)/C=C/c3cccnc3)cc2)c1` [N-ethyl-3-({4-[(2E)-3-(pyridin-3-yl)prop-2-enamido]benzene}sulfonyl)benzamide] were 7.3 nM and 100 to 1000 nM.
The matching figures for `O=C(/C=C/c1cccnc1)Nc1ccc(S(=O)(=O)c2cccc3c2Oc2ccccc2S3)cc1` [(2E)-N-[4-(phenoxathiine-4-sulfonyl)phenyl]-3-(pyridin-3-yl)prop-2-enamide]: 7.2 nM and 50.1 nM.
Consider `O=C(/C=C/c1cccnc1)Nc1ccc(S(=O)(=O)c2cc(Cl)ccc2Cl)cc1` [(2E)-N-{4-[(2,5-dichlorobenzene)sulfonyl]phenyl}-3-(pyridin-3-yl)prop-2-enamide], for which the half-inhibitory concentration (IC50) is 22.4 nM in test [1] and 100 to 1000 nM in test [2].
The matching figures for `Cn1ncc2cc(S(=O)(=O)c3ccc(NC(=O)/C=C/c4cccnc4)cc3)ccc21` [(2E)-N-[4-(1-methyl-1H-indazole-5-sulfonyl)phenyl]-3-(pyridin-3-yl)prop-2-enamide]: 1.9 nM and 97.6 nM.
Taken in the same sequence, the figures for `O=C(/C=C/c1cccnc1)Nc1ccc(S(=O)(=O)c2ccc(Cl)c(C(F)(F)F)c2)cc1` [(2E)-N-(4-{[4-chloro-3-(trifluoromethyl)benzene]sulfonyl}phenyl)-3-(pyridin-3-yl)prop-2-enamide] were 18.4 nM and 122 nM.
As to `CCOCc1ccc(S(=O)(=O)c2ccc(NC(=O)/C=C/c3cccnc3)cc2)cc1` [(2E)-N-(4-{[4-(ethoxymethyl)benzene]sulfonyl}phenyl)-3-(pyridin-3-yl)prop-2-enamide], the values for the 50% inhibitory concentration (IC50) in test [1] and in test [2] were 7.8 nM and 100 to 1000 nM, respectively.
Taken in the same sequence, the figures for `O=C(/C=C/c1cccnc1)Nc1ccc(S(=O)(=O)c2cccc(N3CCOCC3)c2)cc1` [(2E)-N-(4-{[3-(morpholin-4-yl)benzene]sulfonyl}phenyl)-3-(pyridin-3-yl)prop-2-enamide] were 9.2 nM and 30.3 nM.
On to `COc1ccc(S(=O)(=O)c2ccc(NC(=O)/C=C/c3cccnc3)cc2)cc1OC` [(2E)-N-{4-[(3,4-dimethoxybenzene)sulfonyl]phenyl}-3-(pyridin-3-yl)prop-2-enamide], for which the half-maximal inhibitory concentration (IC50) in test [1] came out at 2.5 nM; in test [2], 43.6 nM.
The matching figures for `O=C(/C=C/c1cccnc1)Nc1ccc(S(=O)(=O)c2cccc(C(F)(F)F)c2)cc1` [(2E)-3-(pyridin-3-yl)-N-(4-{[3-(trifluoromethyl)benzene]sulfonyl}phenyl)prop-2-enamide]: 31.9 nM and 107 nM.
Taken in the same sequence, the figures for `CN(C)c1ncc(S(=O)(=O)c2ccc(NC(=O)/C=C/c3cccnc3)cc2)cn1` [(2E)-N-{4-[2-(dimethylamino)pyrimidine-5-sulfonyl]phenyl}-3-(pyridin-3-yl)prop-2-enamide] were 7.9 nM and 73.1 nM.
Taken in the same sequence, the figures for `O=C(/C=C/c1cccnc1)Nc1ccc(S(=O)(=O)c2cc(OC(F)(F)F)ccc2Cl)cc1` [(2E)-N-(4-{[2-chloro-5-(trifluoromethoxy)benzene]sulfonyl}phenyl)-3-(pyridin-3-yl)prop-2-enamide] were 21 nM and 100 to 1000 nM.
With `COc1ccc(OC(F)(F)F)cc1S(=O)(=O)c1ccc(NC(=O)/C=C/c2cccnc2)cc1` [(2E)-N-(4-{[2-methoxy-5-(trifluoromethoxy)benzene]sulfonyl}phenyl)-3-(pyridin-3-yl)prop-2-enamide], the IC50 in test [1] was 16.8 nM; in test [2], 29.3 nM.
In the case of `CCS(=O)(=O)c1cccc(S(=O)(=O)c2ccc(NC(=O)/C=C/c3cccnc3)cc2)c1` [(2E)-N-(4-{[3-(ethanesulfonyl)benzene]sulfonyl}phenyl)-3-(pyridin-3-yl)prop-2-enamide], the IC50 in test [1] came out at 17.3 nM; in test [2], 70.4 nM.
Consider `O=C(/C=C/c1cccnc1)Nc1ccc(S(=O)(=O)c2ccc(-n3cccn3)cc2)cc1` [(2E)-N-(4-{[4-(1H-pyrazol-1-yl)benzene]sulfonyl}phenyl)-3-(pyridin-3-yl)prop-2-enamide], for which the IC50 is 17.4 nM in test [1] and 71.7 nM in test [2].
